Assay results reported in US20160229835A1, “NOVEL PYRIDYLOXYACETYL TETRAHYDROISOQUINOLINE COMPOUNDS USEFUL AS NAMPT INHIBITORS” (ELI LILLY AND COMPANY, priority 2013, published 2016).

What was measured:
[1] = system: A2780 Tumor Xenografts; test: LC-MS Analysis of NAD+ in A2780 Tumor Xenografts; format: in vivo, mice; details: oral gavage
Experimental: (§1) The purpose of this assay is to measure effects of NAMPT inhibitors on NAD^+ formation in cancer cells. LC-MS analysis of NAD^+ metabolites: nicotinamide mononucleotide (NMN), NAD^+, reduced nicotinamide adenine dinucleotide (NADH), and nicotinamide adenine dinucleotide phosphate (NADP) is performed on an HPLC system coupled to a Thermo Quantum Ultra triple quadrupole mass spectrometer operated in positive heated electrospray mode with selected reaction monitoring detection. For cell extracts, 50 μL of extract and 10 μL of 10 μM internal standard (IS) solution is transferred to a 96-well plate, dried under nitrogen and reconstituted in 50 μL of water. For tissue extracts, 20 μL of extract and 10 μL of IS solution are dried and reconstituted in 50 μL water. The IS solution contains 10 μM nicotinamide-d4 (C/D/N Isotopes), nicotinic acid-d4 (C/D/N Isotopes), nicotinamide mononucleotide-d4 (prepared by custom synthesis) and nicotinamide 1,N^6-ethenoadenine dinucleotide in methanol. The metabolites are separated on a Waters XBRIDGE™ Amide (2.1×50 mm, 3 μm) with an injection volume of 10 μL and a flow rate of 1 mL/minute using 10 mM ammonium acetate in 95% acetonitrile for mobile phase A and 10 mM ammonium acetate in 50% acetonitrile for mobile phase B. The gradient is as follows: 0 minutes, 0% B; 2.5 minutes, 70% B; 2.51 minutes, 100% B; 2.8 minutes, 100% B; 2.81 minutes, 0% B, 3.6 minutes, 0% B.
(§2) The purpose of this assay is to measure the effects of NAMPT inhibitors on NAD^+ levels in vivo as described above. Tumors are grown and treated as described below for efficacy in xenograft tumor models below (7 animals/group). Each compound is also formulated as described for efficacy in xenograft tumor models below. Vehicle is 20% of CAPTISOL® and 25 mM of phosphate buffer, pH 2 without compound. After the completion of the treatment, tumor tissues (˜50 mg each) are homogenized in an ice cold extraction buffer (1 mL of 70% methanol/water; HPLC grade for 2 minutes in a tissue lyser II (QIAGEN™) at frequency 30 Hz. The resulting preparations are centrifuged at 14000×g for 6 minutes. The supernatant fractions (500 μL each) are collected and extracted with chloroform (0.5 mL). The aqueous fractions (0.3 mL each) are collected into a 96-well plate ready for LC-MS analysis. The LC-MS analysis of NAD metabolites is performed as described above.
(§3) The purpose of this assay is to measure reduction in tumor volume in response to test compound administration. A2780 and NCI-H1155 (NSCLC) cells are grown as described above for IVTI studies. Cells are harvested and injected subcutaneously onto the rear flank of nude mice. When tumors are established (7-21 days after implant), animals are randomized and grouped into control and test groups (7 animals/group). The test compound is formulated in 20% of CAPTISOL® and 25 mM of phosphate buffer, pH 2. Test compound and vehicle (20% of CAPTISOL® and 25 mM of phosphate buffer, pH 2 without compound) are administered by oral gavage. Tumor response is determined by tumor volume measurement (caliper) performed twice a week during the course of treatment and reported as percent of tumor volume of each treatment group divided by tumor volume of the vehicle control group. […]

[2] = system: NCI-H1155 (lung cancer) cells; test: Cell Viability Assay, NCI-H1155; format: cell-based; details: Homo sapiens, 72 hours
Experimental: (§4) The purpose of this assay is to measure the ability of a compound to reduce viability of different cancer cells dependent on the NAMPT-mediated NAD^+ formation in vitro. HCC1937 (breast cancer) cells are cultured in RPMI-1640 supplemented with 10% FBS. Calu-6 (lung cancer) cells and MCF-7 (breast cancer) cells are cultured in Minimum Essential Medium (MEM) (Gibco11095) supplemented with 1 mM sodium pyruvate (Gibco 11360), 1% Non-Essential Amino Acids Solution (100×; Gibco 11140) and 10% FBS. NCI-H1155 (lung cancer) cells are cultured in Dulbecco's Modified Eagle Medium (DMEM) (Gibco 11965) with 10% FBS. […] Cell viability is analyzed by using an assay kit (CYTOTOX-GLO™ Cytotoxicity Assay kit, Promega) according to the manufacturer's instructions as follows. […] Luminescence is measured using a Wallac Victor3 V 1420 Multilabel Counter (Perkin Elmer), referred to as dead cell luminescence. […] After the plate is incubated at room temperature for 15 minutes, luminescence is measured using the plate reader, referred to as total luminescence. Viable cell luminescence (CPS) is calculated by subtracting the dead cell luminescence from the total luminescence Inhibition of cell viability is calculated based on the equation as follows:
(§5) Inhibition (%)=(CPSnegative−CPSsample)/(CPSnegative−CPSpositive)*100 where CPS is the luminescence of viable cells.

[3] = system: NCI-H1155 Tumor Xenografts; test: LC-MS Analysis of NAD+ in NCI-H1155 Tumor Xenografts; format: in vivo, mice; details: oral gavage
Experimental: as §1, §2, §3

[4] = system: HCC1937 (breast cancer) cells; test: Cell Viability Assay, HCC1937; format: cell-based; details: Homo sapiens, 72 hours
Experimental: as §4, §5

Structure (SMILES)	NAD levels (pmol/mg tissue) ([1]; 8 mg/kg (BID))	NAD levels (pmol/mg tissue) ([1]; 16 mg/kg (BID))	NAD levels (pmol/mg tissue) ([1]; 32 mg/kg (BID))	IC50 [2] [nM]	NAD levels (pmol/mg tissue) ([3]; 8 mg/kg (BID))	NAD levels (pmol/mg tissue) ([3]; 16 mg/kg (BID))	NAD levels (pmol/mg tissue) ([3]; 32 mg/kg (BID))	IC50 [4] [nM]	NAD levels (pmol/mg tissue) ([1]; 5 mg/kg (BID))	NAD levels (pmol/mg tissue) ([1]; 10 mg/kg (BID))	NAD levels (pmol/mg tissue) ([1]; 20 mg/kg (BID))	NAD levels (pmol/mg tissue) ([3]; 2.5 mg/kg (BID))	NAD levels (pmol/mg tissue) ([3]; 5 mg/kg (BID))	NAD levels (pmol/mg tissue) ([3]; 10 mg/kg (BID))	NAD levels (pmol/mg tissue) ([3]; 20 mg/kg (BID))
COCCS(=O)(=O)Nc1ccc2c(c1)CCN(C(=O)COc1cccnc1)C2 [Example 2, 2-Methoxy-N-[2-[2-(3-pyridyloxy)acetyl]-3,4-dihydro-1H-isoquinolin-6-yl]ethanesulfonamide]	3.97	6.52	6.38	37 ± 16	5.19	1.98	0.84	1040 ± 664							
CC(C)(O)CS(=O)(=O)Nc1ccc2c(c1)CCN(C(=O)COc1cccnc1)C2 [Example 1, 2-Hydroxy-2-methyl-N-[2-[2-(3-pyridyloxy)acetyl]-3,4-dihydro-1H-isoquinolin-6-yl]propane-1-sulfonamide]				18 ± 3				333 ± 32	5.04	2.55	3.29	11.38	7.48	3.63	1.82
